Data published in PubChem BioAssay (NCI).
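Test compounds were applied to cells in 96-well plates for 48 hours at 5 doses. GI50 = concentration required for 50% inhibition of growth. TGI marks complete inhibition of growth.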

How the values were obtained:
Assay in all cases: growth of human tumour cells (NCI), 48 h
[1] = system: IGROV1 ovarian
[2] = system: SW-620 colon
[3] = system: CAKI-1 renal
[4] = system: HCT-15 colon
[5] = system: HS 578T breast
[6] = system: K-562 leukemia
[7] = system: OVCAR-5 ovarian
[8] = system: MDA-MB-231 breast
[9] = system: SNB-75 CNS
[10] = system: SF-268 CNS
[11] = system: MCF7 breast
[12] = system: HCT-116 colon
[13] = system: SNB-19 CNS
[14] = system: UO-31 renal
[15] = system: MDA-MB-435
[16] = system: U251 CNS
[17] = system: HOP-62 NSCLC
[18] = system: MDA-MB-468 breast
[19] = system: NCI/ADR-RES ovarian
[20] = system: SF-295 CNS
[21] = system: MALME-3M melanoma
[22] = system: A549 NSCLC
[23] = system: SK-MEL-2 melanoma
[24] = system: DU-145 prostate
[25] = system: NCI-H522 lung
[26] = system: SK-OV-3 ovarian
[27] = system: HCC-2998 colon
[28] = system: SF-539 CNS
[29] = system: TK-10 renal
[30] = system: A498 renal
[31] = system: LOX IMVI melanoma
[32] = system: KM12 colon
[33] = system: 786-0 renal
[34] = system: NCI-H23 lung
[35] = system: BT-549 breast
[36] = system: T-47D breast
[37] = system: NCI-H226 lung
[38] = system: PC-3 prostate
[39] = system: OVCAR-3 ovarian
[40] = system: EKVX NSCLC
[41] = system: UACC-257 melanoma
[42] = system: SK-MEL-5 melanoma

## O=C(O)CCN1C(=O)/C(=C/C=C/c2ccc([N+](=O)[O-])o2)SC1=S
[1]
  GI50: 1580 nM
[2]
  GI50: 1260 nM
  TGI: 2810 nM
[3]
  GI50: 1770 nM
  TGI: 3170 nM
[4]
  GI50: 430 nM
[5]
  GI50: 1650 nM
  TGI: 6710 nM
[6]
  GI50: 378 nM
  TGI: 6070 nM
[7]
  GI50: 1800 nM
  TGI: 3340 nM
[8]
  GI50: 1270 nM
  TGI: 2580 nM
[9]
  GI50: 1570 nM
  TGI: 10700 nM
[10]
  GI50: 1680 nM
  TGI: 3950 nM
[11]
  GI50: 401 nM
[12]
  GI50: 386 nM
  TGI: 1660 nM
[13]
  GI50: 2090 nM
[14]
  GI50: 1260 nM
  TGI: 2530 nM
[15]
  GI50: 1530 nM
  TGI: 3170 nM
[16]
  GI50: 849 nM
[17]
  GI50: 1860 nM
  TGI: 3920 nM
[18]
  GI50: 1130 nM
  TGI: 2490 nM
[19]
  GI50: 2010 nM
  TGI: 10100 nM
[20]
  GI50: 1680 nM
  TGI: 3240 nM
[21]
  GI50: 748 nM
  TGI: 2120 nM
[22]
  TGI: 13500 nM
[23]
  GI50: 1160 nM
[24]
  GI50: 3330 nM
  TGI: 12200 nM
[25]
  GI50: 379 nM
  TGI: 1460 nM
[26]
  GI50: 3980 nM
[27]
  GI50: 1650 nM
  TGI: 3060 nM
[28]
  GI50: 1090 nM
  TGI: 2300 nM
[29]
  GI50: 1810 nM
  TGI: 3350 nM
[30]
  GI50: 20000 nM
  TGI: 34300 nM
[31]
  GI50: 508 nM
[32]
  TGI: 2710 nM
[33]
  GI50: 1630 nM
[34]
  TGI: 3080 nM
[35]
  GI50: 1130 nM
  TGI: 2380 nM
[36]
  GI50: 1410 nM
  TGI: 4170 nM
[37]
  GI50: 1400 nM
[38]
  GI50: 1930 nM
  TGI: 6090 nM
[39]
  GI50: 1170 nM
  TGI: 2570 nM
[40]
  GI50: 1410 nM
[41]
  TGI: 3550 nM
[42]
  GI50: 1380 nM
  TGI: 2680 nM

## O=C1Nc2ccc(C(=O)c3ccco3)cc2/C1=C/c1cc(Cl)c(O)c(Cl)c1
[18]
  GI50: 1860 nM
  TGI: 16000 nM
